From patent publication US20100297042A1, “Cosmetic Compositions and Methods Comprising Rhodiola Rosea” (priority 2004, published 2010)

Tested on: living skin equivalents (LSE)
Assay: TT dimer immunostaining (DNA damage/repair) in UVB-irradiated living skin equivalents
Type: cell-based
Settings: pre-treated 0.01% (PBS) 18 hours; 24 hours after 175 mJ of UVB
Method: Excised portions (8 mm) are taken from living skin equivalents (LSE) and cultured over transwell membrane plates. These excised portions are pre-treated with rosavin or salidroside at 0.01% (PBS) for 18 hours. After the […], these excised portions are UVB-irradiated at 0 and 175 mJ/cm^2. One set of LSEs is immediately fixed in formalin to determine TT dimer formation (DNA damage). Following a 24-hour post-incubation, another set of skin equivalents is fixed in formalin. These samples are then prepared for TT dimer immunostaining. Sections are then evaluated using a microscope at 400× magnification. A section is selected from each sample and TT dimer containing cells are evaluated. DNA damage is measured by examining TT dimer stained cells immediately after UVB irradiation. DNA repair (TT dimer removal) in UVB-irradiated LSEs is determined by comparing the levels of TT dimer at 0 hr (immediately after UVB) with the levels of TT dimer at 24 hours (24 hours after UVB).

Structure (SMILES) | TT dimer levels [%]
OC[C@H]1O[C@@H](OCCc2ccc(O)cc2)[C@H](O)[C@@H](O)[C@@H]1O [salidroside, hydroxyphenylethanol-2-D-glucopyranoside] | 12
O[C@@H]1[C@@H](O)[C@@H](OC/C=C/c2ccccc2)O[C@H](CO[C@@H]2OC[C@H](O)[C@H](O)[C@H]2O)[C@H]1O [rosavin, cinnamyl alcohol vicyanoside rosavin] | 7
